Data as given in US12275684B2, “Methods for making and using endoxifen” (Atossa Therapeutics, Inc., priority 2017, dated 2025).
Values joined by “and” are separate entries in the source; they are usually repeats but may differ in a detail not shown here. Equal values may be shown once. Read-outs that look alike come from different tables or passages of the source.

Columns and labels:
[1] = cited from earlier work
[2] = Comparison of (Z)-endoxifen concentrations (oral) with published literature (Table 22); format: in vivo
[3] = Safety and tolerability of oral (Z)-Endoxifen in healthy female volunteers; format: in vivo, human
Description: Study assessments included taking the subjects medical history, including evaluation of any on-study adverse events and concomitant medication use; height and weight; physical examination; periodic vital signs (body temperature, heart rate, respiratory rate, blood pressure); periodic 12-lead ECGs. […] Specific assessments to evaluate treatment safety included the following: the frequency and type of adverse events, clinical laboratory testing, 12-lead ECGs and vital signs. A modified FACT-ES® scoring questionnaire was used to assess symptomatology.
Safety endpoints were summarized by dose cohort, with placebos pooled across cohorts. Treatment-emergent AEs were coded using the latest version of MedDRA by System Organ Class (SOC) and Preferred Term, classified from verbatim terms. The incidence and frequency of AEs, and SAEs, were summarized by cohort according to SOC and Preferred Terms, and by severity and relationship. The duration of AEs was determined and included in listings, along with the action taken and outcome. Vital signs, ECG and safety laboratory parameters were summarized at each scheduled time point using descriptive statistics. Post-dose assessments were compared with baseline measurements. The incidence of laboratory abnormalities was summarized. Physical examination findings were presented in listings.

[4] = Accelerated stability study of (Z)-endoxifen free base solution in ethanol (E/Z by HPLC); format: physicochemical
Procedure: (§1) HPLC-UV analyses of the samples was carried out using a Luna phenyl-hexyl column (4.6 mm×150 mm×3 μm of particle size). The column temperature was 40° C. and sample compartment temperature was maintained at ambient temperature. Samples were prepared by dissolving solids and filtrates at 0.2 mg/ml of sample in methanol as sample buffer. Samples were then injected into the column in an injection volume of 20 μl. Likewise, mildly acidic (pH 4.3) ammonium formate buffer/methanol in the mobile phase with gradient elution was used. Mobile phase system consisting of: Mobile Phase A (MPA) buffer was 10 mM HCOONH4 with 0.03% HCOOH buffer in water, and Mobile Phase B (MBP) buffer was 10 mM HCOONH4 in methanol with a gradient program used.
(§2) The run time was 30 m, the flow rate was 1.0 mL/m, and the delay time was 5 m. Samples were detected by UV detection at 243 nm. Retention times were typically from 12.95 to 13.20 m for (E)-endoxifen and from 14.0 to 14.33 m for (Z)-endoxifen. Relative Retention Time (RRT) for (E)-endoxifen was […] and 1.0 for (Z)-endoxifen.
(§3) The stability of (Z)-endoxifen free base Sample 1 of Table 11 was studied when stored at various temperatures in solid form and in ethanol (EtOH) solution. The (E)-endoxifen and (Z)-endoxifen levels were measured on days 2, 7 and 10 following placement of 1 g aliquots of purified (Z)-endoxifen free base in 180 mL HDPE bottles under dry N2, which were then placed in double LDPE bags. The double bagged HDPE bottles containing each sample were individually packed in aluminum foil bags and thermally sealed until they were opened for testing the stability of the samples. The (E)- and (Z)-isomers of endoxifen were monitored by HPLC as disclosed above. The purity of (Z)-endoxifen in solid form remained at about 97% at 40° C., 60° C., and 80° C. up to 10 days.

[5] = Accelerated 10-day stability study of solid (Z)-endoxifen free base (E/Z by HPLC); format: physicochemical; conditions: for (E)-endoxifen content / (Z)-endoxifen content / E/Z ratio / Total Impurity: solid
Procedure: as §1, §2, §3

[6] = 2.8 mg/mL in 70% EtOH, 25° C., 2 days
[7] = 2.8 mg/mL in 70% EtOH, 25° C., 7 days
[8] = 2.8 mg/mL in 70% EtOH, 25° C., 10 days
[9] = 2.8 mg/mL in 70% EtOH, 40° C., 2 days
[10] = 2.8 mg/mL in 70% EtOH, 40° C., 7 days
[11] = 2.8 mg/mL in 70% EtOH, 40° C., 10 days
[12] = 10 mg/mL in 99.5% EtOH, 25° C., 2 days
[13] = 10 mg/mL in 99.5% EtOH, 25° C., 7 days
[14] = 10 mg/mL in 99.5% EtOH, 25° C., 10 days
[15] = 10 mg/mL in 99.5% EtOH, 40° C., 2 days
[16] = 10 mg/mL in 99.5% EtOH, 40° C., 7 days
[17] = 10 mg/mL in 99.5% EtOH, 40° C., 10 days

CC/C(=C(\c1ccc(O)cc1)c1ccc(OCCNC)cc1)c1ccccc1 [(Z)-Endoxifen, (Z)-4-(1-(4-(2-(methylamino)ethoxy)phenyl)-2-phenylbut-1-enyl) phenol]
Published Literature Result of Average Plasma (Z)-Endoxifen Css ([1]; oral dose 1 mg): 12.4 ng/mL and 33.1 nM | Published Literature Result of Average Plasma (Z)-Endoxifen Css ([1]; oral dose 2 mg): 18.6 ng/mL and 49.8 nM | Published Literature Result of Average Plasma (Z)-Endoxifen Css ([1]; oral dose 4 mg): 56.8 ng/mL and 152.1 nM | Published Literature Result of Average Plasma (Z)-Endoxifen Css ([1]; oral dose 8 mg): 96.8 ng/mL and 259.2 nM | % Ratio of Css Study/Literature ([2]; oral dose 1 mg): 154% | Study Result of Average Serum (Z)-Endoxifen Css ([2]; oral dose 1 mg): 19.1 ng/mL and 51.1 nM | % Ratio of Css Study/Literature ([2]; oral dose 2 mg): 204% | Study Result of Average Serum (Z)-Endoxifen Css ([2]; oral dose 2 mg): 38 ng/mL and 101.7 nM | % Ratio of Css Study/Literature ([2]; oral dose 4 mg): 150% | Study Result of Average Serum (Z)-Endoxifen Css ([2]; oral dose 4 mg): 85.1 ng/mL and 227.9 nM | subjects with treatment related AEs of moderate severity ([3]; 5 of 18 subjects): 28% | subjects with treatment-emergent AEs deemed related to study drug ([3]; 15 of 18 subjects, oral 1-4 mg): 83% | number of treatment related AEs of moderate severity ([3]; 18 subjects): 6 AEs | number of treatment-related AEs ([3]; 18 subjects, oral 1-4 mg): 41 AEs | severity of AEs ([3]; all AEs mild (75 of 84) or moderate (9 of 84), incl. placebo): no AEs classified as severe | adverse events reported only in subjects who received (Z)-Endoxifen ([3]; human, in vivo): Upper respiratory infection, hot flush, abdominal distension, dry mouth, and menstruation delayed | safety by clinical laboratory tests, vital signs, ECG, FACT-ES versus placebo ([3]; human, in vivo): no clear differences in safety | (E)-endoxifen content [4, 6]: (2.09%/ | (Z)-endoxifen content [4, 6]: 96.59%) | E/Z ratio [4, 6]: 1/46 | Total Impurity [4, 6]: 1.33% | (E)-endoxifen content [4, 7]: (5.62% | (Z)-endoxifen content [4, 7]: 92.67%) | E/Z ratio [4, 7]: 1/17 | Total Impurity [4, 7]: 1.71% | (E)-endoxifen content [4, 8]: (10.46%/ | (Z)-endoxifen content [4, 8]: 88.20%) | Total Impurity [4, 8]: 1.34% | (E)-endoxifen content [4, 9]: (4.43%/ | (Z)-endoxifen content [4, 9]: 94.23%) | E/Z ratio [4, 9]: 1/21 | Total Impurity [4, 9]: 1.34% | (E)-endoxifen content [4, 10]: (15.23%/ | (Z)-endoxifen content [4, 10]: 83.04%) | Total Impurity [4, 10]: 1.73% | (E)-endoxifen content [4, 11]: (22.59%/ | (Z)-endoxifen content [4, 11]: 76.09%) | Total Impurity [4, 11]: 1.32% | (E)-endoxifen content [4, 12]: (1.37%/ | (Z)-endoxifen content [4, 12]: 97.33%) | E/Z ratio [4, 12]: 1/71 | Total Impurity [4, 12]: 1.3% | (E)-endoxifen content [4, 13]: (1.91%/ | (Z)-endoxifen content [4, 13]: 96.37%) | E/Z ratio [4, 13]: 1/50 | Total Impurity [4, 13]: 1.72% | (E)-endoxifen content [4, 14]: (2.58%/ | (Z)-endoxifen content [4, 14]: 96.03%) | E/Z ratio [4, 14]: 1/37 | Total Impurity [4, 14]: 1.39% | (E)-endoxifen content [4, 15]: (1.70%/ | (Z)-endoxifen content [4, 15]: 96.98%) | E/Z ratio [4, 15]: 1/57 | Total Impurity [4, 15]: 1.32% | (E)-endoxifen content [4, 16]: (2.82%/ | (Z)-endoxifen content [4, 16]: 95.45%) | E/Z ratio [4, 16]: 1/34 | Total Impurity [4, 16]: 1/73% | (E)-endoxifen content [4, 17]: (3.56%/ | (Z)-endoxifen content [4, 17]: 95.10%) | E/Z ratio [4, 17]: 1/27 | Total Impurity [4, 17]: 1.34% | stability in alcoholic solutions ([4]; ethanol, elevated temperatures (40° C.), higher concentrations, over 10 days): surprisingly stable | purity of (Z)-endoxifen in solid form ([5]; 40° C., 60° C., and 80° C. up to 10 days): about 97% | (E)-endoxifen content ([5]; 40° C., 2 days): 1.27% | (Z)-endoxifen content ([5]; 40° C., 2 days): 97.45% | E/Z ratio ([5]; 40° C., 2 days): 1/76 | Total Impurity ([5]; 40° C., 2 days): 1.28% | (E)-endoxifen content ([5]; 40° C., 7 days): 1.2% | (Z)-endoxifen content ([5]; 40° C., 7 days): 97.11% | E/Z ratio ([5]; 40° C., 7 days): 1/81 | Total Impurity ([5]; 40° C., 7 days): 1.69% | (E)-endoxifen content ([5]; 40° C., 10 days): 1.29% | (Z)-endoxifen content ([5]; 40° C., 10 days): 97.31% | E/Z ratio ([5]; 40° C., 10 days): 1/75 | Total Impurity ([5]; 40° C., 10 days): 1.40% | (E)-endoxifen content ([5]; 60° C., 2 days): 1.30% | (Z)-endoxifen content ([5]; 60° C., 2 days): 97.43% | E/Z ratio ([5]; 60° C., 2 days): 1/75 | Total Impurity ([5]; 60° C., 2 days): 1.27% | (E)-endoxifen content ([5]; 60° C., 7 days): 1.17% | (Z)-endoxifen content ([5]; 60° C., 7 days): 97.1% | E/Z ratio ([5]; 60° C., 7 days): 1/83 | Total Impurity ([5]; 60° C., 7 days): 1.72% | (E)-endoxifen content ([5]; 60° C., 10 days): 1.27% | (Z)-endoxifen content ([5]; 60° C., 10 days): 97.48% | E/Z ratio ([5]; 60° C., 10 days): 1/82 | Total Impurity ([5]; 60° C., 10 days): 1.33% | (E)-endoxifen content ([5]; 80° C., 2 days): 1.28% | (Z)-endoxifen content ([5]; 80° C., 2 days): 97.42% | E/Z ratio ([5]; 80° C., 2 days): 1/76 | Total Impurity ([5]; 80° C., 2 days): 1.30% | (E)-endoxifen content ([5]; 80° C., 7 days): 1.34% | (Z)-endoxifen content ([5]; 80° C., 7 days): 96.92% | E/Z ratio ([5]; 80° C., 7 days): 1/72 | Total Impurity ([5]; 80° C., 7 days): 1.74% | (E)-endoxifen content ([5]; 80° C., 10 days): 1.27% | (Z)-endoxifen content ([5]; 80° C., 10 days): 97.33% | E/Z ratio ([5]; 80° C., 10 days): 1/77 | Total Impurity ([5]; 80° C., 10 days): 1.40% | interconversion of (Z)- to (E)-endoxifen in solid form ([5]; tested temperatures up to 10 days): does not interconvert to (E)-endoxifen
